The values that follow are results of earlier work, collected in patent US20250360174A1, “ENGINEERED BACTERIA, ENGINEERED BIOFILMS, AND LIVING MATERIALS BASED ON BACILLUS SUBTILIS” (EAST CHINA UNIVERSITY OF SCIENCE AND TECHNOLOGY, priority 2024, published 2025).

Molecules are shown by their SMILES.

This data set relates to RAW264.7 cells.

Turning to `O[C@H]1[C@@H]2OC[C@H](O[C@H]1O)[C@H]2O` [L-AHG, 3,6-anhydro-α-L-galactose], the anti-inflammatory activity entry is on record as “has been shown to have anti-inflammatory activity”.
